This series can be described thus: molar enthalpy of vaporization or sublimation. The following applies: 298.15 K; Crystal; Static calorimetry.

± gives the expanded uncertainty stated by the source.

This note sets out measurements from the NIST ThermoML archive (doi:10.1016/j.jct.2012.08.018).

As to `COC(N)=O` [carbamic acid, methyl ester], the molar enthalpy amounted to 17.6 ± 0.311 kcal/mol.
The result for `CCOC(N)=O` [ethyl carbamate] reads 18.6 ± 0.335 kcal/mol.
